From patent publication US10047075B2, “Pyridines and pyrimidines and use thereof” (Purdue Pharma L.P., priority 2014, dated 2018)

Molecular target: human Nav1.7 (Homo sapiens, UniProt Q15858)
Assay: FLIPR or FLIPR TETRA sodium dye assay with KCl and test article pre-incubation (CoroNa Green, veratridine + scorpion venom)
Type: cell-based
Details: recombinant human Nav1.7 in HEK293 cells

human Nav1.7, sequence (Q15858 1-1977 isoform Q15858-3): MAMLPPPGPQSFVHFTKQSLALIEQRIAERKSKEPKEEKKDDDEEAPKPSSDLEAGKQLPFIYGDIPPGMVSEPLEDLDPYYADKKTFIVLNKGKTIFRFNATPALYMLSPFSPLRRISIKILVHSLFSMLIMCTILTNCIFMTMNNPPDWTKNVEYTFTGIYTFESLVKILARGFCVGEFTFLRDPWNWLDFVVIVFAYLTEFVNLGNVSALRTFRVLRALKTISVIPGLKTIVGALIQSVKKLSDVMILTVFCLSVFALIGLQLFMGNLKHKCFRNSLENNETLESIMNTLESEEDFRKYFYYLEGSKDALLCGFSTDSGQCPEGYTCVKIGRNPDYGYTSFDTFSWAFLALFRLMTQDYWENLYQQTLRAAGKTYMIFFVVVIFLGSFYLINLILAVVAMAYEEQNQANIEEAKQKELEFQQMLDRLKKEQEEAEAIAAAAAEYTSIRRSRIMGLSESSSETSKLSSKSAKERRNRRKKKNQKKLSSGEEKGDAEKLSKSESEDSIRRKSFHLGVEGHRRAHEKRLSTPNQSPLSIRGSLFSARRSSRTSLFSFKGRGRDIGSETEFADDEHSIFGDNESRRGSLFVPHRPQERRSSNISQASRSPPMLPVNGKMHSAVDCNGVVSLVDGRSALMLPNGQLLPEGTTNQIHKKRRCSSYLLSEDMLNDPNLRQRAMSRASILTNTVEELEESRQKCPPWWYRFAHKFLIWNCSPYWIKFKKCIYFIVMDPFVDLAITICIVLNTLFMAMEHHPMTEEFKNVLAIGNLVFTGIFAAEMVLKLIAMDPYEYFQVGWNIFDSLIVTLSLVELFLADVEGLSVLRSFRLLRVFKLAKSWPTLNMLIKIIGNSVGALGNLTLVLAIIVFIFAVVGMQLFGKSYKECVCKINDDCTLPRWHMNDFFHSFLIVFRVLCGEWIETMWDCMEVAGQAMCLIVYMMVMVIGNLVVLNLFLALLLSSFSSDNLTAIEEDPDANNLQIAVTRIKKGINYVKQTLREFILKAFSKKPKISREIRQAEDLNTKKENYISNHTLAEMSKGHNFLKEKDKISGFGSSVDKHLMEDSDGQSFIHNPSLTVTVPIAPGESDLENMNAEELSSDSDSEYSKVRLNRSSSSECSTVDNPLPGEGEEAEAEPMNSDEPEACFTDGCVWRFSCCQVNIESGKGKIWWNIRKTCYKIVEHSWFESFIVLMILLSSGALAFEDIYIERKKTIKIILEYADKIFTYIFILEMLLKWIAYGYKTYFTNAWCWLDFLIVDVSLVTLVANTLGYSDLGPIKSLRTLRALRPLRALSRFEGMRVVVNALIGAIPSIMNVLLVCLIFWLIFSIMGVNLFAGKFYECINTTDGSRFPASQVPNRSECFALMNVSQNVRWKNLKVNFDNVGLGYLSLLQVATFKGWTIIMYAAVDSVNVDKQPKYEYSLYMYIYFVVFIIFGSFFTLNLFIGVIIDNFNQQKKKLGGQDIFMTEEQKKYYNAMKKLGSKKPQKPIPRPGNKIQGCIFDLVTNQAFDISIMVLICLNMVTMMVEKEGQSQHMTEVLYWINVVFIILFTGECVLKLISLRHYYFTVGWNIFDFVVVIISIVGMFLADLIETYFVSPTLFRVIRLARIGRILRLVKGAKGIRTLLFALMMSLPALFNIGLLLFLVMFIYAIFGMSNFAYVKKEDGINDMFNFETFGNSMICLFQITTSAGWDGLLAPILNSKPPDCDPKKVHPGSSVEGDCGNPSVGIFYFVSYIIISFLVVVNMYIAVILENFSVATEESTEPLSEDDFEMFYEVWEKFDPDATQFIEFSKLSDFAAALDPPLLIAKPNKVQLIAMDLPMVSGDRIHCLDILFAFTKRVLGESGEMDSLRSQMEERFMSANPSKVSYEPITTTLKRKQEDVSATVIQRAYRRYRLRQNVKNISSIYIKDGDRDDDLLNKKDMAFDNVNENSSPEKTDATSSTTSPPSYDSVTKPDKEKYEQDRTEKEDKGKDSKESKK

Question: CNC(=O)CN1CCN(c2ccc(C(F)(F)F)cc2)c2ccc(-c3cccc([C@H](O)CO)n3)cc2C1 [Compound 105, (S)-2-(7-(6-(1,2-dihydroxyethyl)pyridin-2-yl)-1-(4-(trifluoromethyl)phenyl)-1,2,3,5-tetrahydro-4H-benzo[e][1,4]diazepin-4-yl)-N-methylacetamide] was tested. Which IC50 did it give?
Answer: Its IC50 is 0.644 ± 0.025 µM.

Question: N#CCN1CCN(c2ccc(C(F)(F)F)cc2)c2ccc(-c3cccc([C@H](O)CO)n3)cc2C1 [Compound 106, (S)-2-(7-(6-(1,2-dihydroxyethyl)pyridin-2-yl)-1-(4-(trifluoromethyl)phenyl)-1,2,3,5-tetrahydro-4H-benzo[e][1,4]diazepin-4-yl)acetonitrile] was tested. Which IC50 did it give?
Answer: The IC50 was 0.581 ± 0.038 µM.

Question: For OC[C@@H](O)c1cccc(-c2ccc3c(c2)CN(Cc2ncc[nH]2)CCN3c2ccc(C(F)(F)F)cc2)n1 [Compound 107, (S)-1-(6-(4-((1H-imidazol-2-yl)methyl)-1-(4-(trifluoromethyl)phenyl)-2,3,4,5-tetrahydro-1H-benzo[e][1,4]diazepin-7-yl)pyridin-2-yl)ethane-1,2-diol], which IC50 is on record?
Answer: The IC50 was 0.669 ± 0.053 µM.

Question: How did the IC50 turn out when NC(=O)c1cccc(-c2ccc3c(c2)CN(CC(O)CO)CCN3c2ccc(C(F)(F)F)cc2)n1 (stereo not shown) [Compound 109, 6-(4-(2,3-dihydroxypropyl)-1-(4-(trifluoromethyl)phenyl)-2,3,4,5-tetrahydro-1H-benzo[e][1,4]diazepin-7-yl)picolinamide] was run?
Answer: The IC50 was 5.7 ± 0.663 µM.

Question: With C[C@H](Nc1cc(C(N)=O)nc(-c2ccc3c(c2)OCCC3Cc2ccc(F)cc2)n1)C(N)=O (stereo partly drawn) [Compound 112, 6-(((S)-1-amino-1-oxopropan-2-yl)amino)-2-(4-(4-fluorobenzyl)chroman-7-yl)pyrimidine-4-carboxamide] as the molecule, how does the IC50 read?
Answer: Its IC50 is 5.32 ± 0.425 µM.

Question: NC(=O)c1cc([C@H](O)CO)cc(-c2ccc3c(c2)CN(CC2CC2)CCN3c2ccc(C(F)(F)F)cc2)n1 [Compound 122, (S)-6-(4-(cyclopropylmethyl)-1-(4-(trifluoromethyl)phenyl)-2,3,4,5-tetrahydro-1H-benzo[e][1,4]diazepin-7-yl)-4-(1,2-dihydroxyethyl)-picolinamide] was tested. Which IC50 did it give?
Answer: The IC50 was 7.21 ± 0.341 µM.

Question: How did the IC50 turn out when NC(=O)c1cc(-c2ccc3c(c2)CN(CC2CC2)CCN3c2ccc(C(F)(F)F)cc2)cc([C@H](O)CO)n1 [Compound 123, (S)-4-(4-(cyclopropylmethyl)-1-(4-(trifluoromethyl)phenyl)-2,3,4,5-tetrahydro-1H-benzo[e][1,4]diazepin-7-yl)-6-(1,2-dihydroxyethyl)-picolinamide] was run?
Answer: The IC50 was 9.61 ± 0.339 µM.
